Experimental findings from paper PMC6410080 (Viruses, 2019) are described below.

The IC50 is the concentration at which inhibition is half-maximal.

The subject of the assay is RRV. The assay is described as follows: microbe, parasite or virus in culture. Conditions: Ross River virus, HeLa Kyoto, read-out: IC50 RRV. Type of assay: cell-based.

Where a name gives a salt, the structure may show the parent alone.

Turning to `CC[C@@]1([C@@H]2O[C@@H]([C@H]3O[C@@](O)(CO)[C@H](C)C[C@@H]3C)C[C@@H]2C)CC[C@H]([C@]2(C)CC[C@]3(C[C@H](O)[C@@H](C)[C@@H]([C@@H](C)[C@@H](OC)[C@H](C)C(=O)O)O3)O2)O1` [Monensin, Monensin sodium salt], the IC50 worked out at 4.6 µM.

For the compound `CCN(CC)Cc1cc(Nc2ccnc3cc(Cl)ccc23)ccc1O` [Amodiaquine, Amodiaquine dihydrochloride dihydrate], the IC50 was determined as 6.2 µM.

For `CC(C)COCC(CN(Cc1ccccc1)c1ccccc1)N1CCCC1` (stereo not shown) [Bepridil, Bepridil hydrochloride], the IC50 was 4.6 µM.

Turning to `C=C1C(=O)O[C@H]2[C@H]1CC/C(C)=C/CC[C@@]1(C)O[C@@H]21` [Parthenolide], the IC50 amounted to 7.7 µM.

Regarding `CNc1ccc2oc(C[C@H]3O[C@@]4(CC[C@H]3C)O[C@H]([C@H](C)C(=O)c3ccc[nH]3)[C@H](C)C[C@H]4C)nc2c1C(=O)O` [Calcimycin], the IC50 stood at 6.5 µM.

Regarding `O=C(Nc1ccc([N+](=O)[O-])cc1Cl)c1cc(Cl)ccc1O` [Niclosamide], the IC50 came to 0.82 µM.

For the compound `O=C1c2c(O)ccc(O)c2C(=O)c2c(NCCNCCO)ccc(NCCNCCO)c21` [Mitoxantrone, Mitoxantrone dihydrochloride], the IC50 was 4.9 µM.
